Experimental data: paper PMC10117764, “The roles of serine hydrolases and serum albumin in alisol B 23-acetate hydrolysis in humans” (Frontiers in Pharmacology, 2023)

Key:
[1] = target: T1, hCES2A (Homo sapiens, UniProt O00748); assay: Reaction phenotyping assay of AB23A hydrolysis, hCES2A; type: in vitro ADME; conditions: hCES2A 5 μg/mL, AB23A 20 μM, 60 min, pH 7.4 at 37°C
T1 construct: 10xHis; made in house; host or cells: HEK293-F cells, pTT5 vector, purified from conditioned medium
T1 sequence (O00748 27-559): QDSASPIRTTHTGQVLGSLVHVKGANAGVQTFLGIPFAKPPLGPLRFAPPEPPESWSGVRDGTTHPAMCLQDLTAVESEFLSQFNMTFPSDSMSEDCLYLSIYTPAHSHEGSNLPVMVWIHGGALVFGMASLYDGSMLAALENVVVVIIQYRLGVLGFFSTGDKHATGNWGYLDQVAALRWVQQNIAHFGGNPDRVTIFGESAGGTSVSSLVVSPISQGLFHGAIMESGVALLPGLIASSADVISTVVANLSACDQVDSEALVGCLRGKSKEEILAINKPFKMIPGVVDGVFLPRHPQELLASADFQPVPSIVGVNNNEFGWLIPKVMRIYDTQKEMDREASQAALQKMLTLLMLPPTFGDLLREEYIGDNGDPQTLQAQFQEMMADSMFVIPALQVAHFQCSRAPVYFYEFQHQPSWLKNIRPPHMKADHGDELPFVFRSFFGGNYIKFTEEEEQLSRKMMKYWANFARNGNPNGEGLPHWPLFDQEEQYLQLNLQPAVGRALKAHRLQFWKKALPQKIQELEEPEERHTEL
Protocol: (§1) The hydrolytic rates of AB23A in different human recombinant enzymes (hCES1A, hCES2A, hPL, hIAH1, hNotum, hAchE, hBchE, hSA, hCTSA, hMAGL) were assayed. The incubation system included PBS, each tested enzyme (5 μg/mL, final concentration), and AB23A (20 μM). After incubation for 1 h at 37°C, ice-cold acetonitrile was added to terminate the reaction and precipitate proteins. The supernatants by centrifuging were used to quantify the formation rates of AB by LC-UV analysis. The detection wavelength of AB was 196 nm.

[2] = parameters: method as in Liu et al. (2022); conditions: oral administration of Qingfei Paidu Decoction, ref Liu et al. (2022); cited from earlier work
[3] = target: T2, hCES1A (Homo sapiens, UniProt P23141); assay: Reaction phenotyping assay of AB23A hydrolysis, hCES1A; type: in vitro ADME; conditions: hCES1A 5 μg/mL, AB23A 20 μM, 60 min, pH 7.4 at 37°C
T2 construct: 10xHis; made in house; host or cells: HEK293-F cells, pTT5 vector, purified from conditioned medium
T2 sequence (P23141 18-563): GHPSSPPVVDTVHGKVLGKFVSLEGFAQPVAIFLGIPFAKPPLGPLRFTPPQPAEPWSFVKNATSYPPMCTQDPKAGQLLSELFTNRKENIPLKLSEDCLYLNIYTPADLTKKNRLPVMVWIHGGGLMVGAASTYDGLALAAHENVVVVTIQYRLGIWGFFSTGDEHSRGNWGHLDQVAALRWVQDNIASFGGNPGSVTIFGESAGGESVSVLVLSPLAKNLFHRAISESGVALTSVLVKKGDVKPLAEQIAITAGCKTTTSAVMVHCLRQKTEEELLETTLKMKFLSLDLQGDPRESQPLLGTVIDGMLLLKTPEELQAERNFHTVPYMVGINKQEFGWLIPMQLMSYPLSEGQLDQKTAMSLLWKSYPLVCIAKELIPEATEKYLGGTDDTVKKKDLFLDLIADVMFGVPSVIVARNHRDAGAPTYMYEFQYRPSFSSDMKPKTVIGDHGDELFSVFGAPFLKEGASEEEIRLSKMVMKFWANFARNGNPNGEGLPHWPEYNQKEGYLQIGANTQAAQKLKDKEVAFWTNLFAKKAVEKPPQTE
Protocol: as §1

[4] = Stability of AB23A in PBS under physiological conditions; type: physicochemical; conditions: pH 7.4 at 37°C
Protocol: AB23A and its hydrolytic metabolite were separated by ACQUITY UPLC I-Class plus system (Waters Corporation, Milford, United States) coupled with ACQUITY UPLC HSS T3 (100 mm × 2.1 mm, 1.8 μm, Waters, United States), and identified by using Q-Exactive quadru-pole-Orbitrap mass spectrometer. The mobile phases consisted of 0.1% formic acid in water (A) and acetonitrile (B) with the elution gradients were as follows: 0–2 min, 5% B, 2–4 min, 5%–30% B, 4–8 min, 30%–50% B, 8–10 min, 50%–80% B, 10–14 min, 80%–100%, 14–15 min, 100% B, 15–15.1 min, 100%–5% B, 15.1–16 min, 5% B. The flow rate was set at 0.35 mL/min, while the temperature of chromatographic column was maintained at 45°C. The mass range was set from m/z 80 to 1,200. Other MS conditions were as follows: Resolution and AGC target were set at 30000 and 1e^6, the maximum IT was 50 ms and loop count was set 10. (N) CE/stepped (N)CE was set 10, 20, 40 ev. All data were analyzed by PeakView 2.2 software and Thermo Xcalibur.
The incubation conditions were as follows: the classic incubation system included 100 mM potassium phosphate buffer (PBS, pH 7.4), enzyme sources, and AB23A. In all incubations, PBS and enzyme sources were pre-incubation at 37 °C for 3 min and the reaction was started by adding AB23A (the organic solvent content at most 1%). […]

[5] = Hydrolytic half-life of AB23A in rat liver microsomes; type: in vitro ADME; conditions: rat liver microsomes (RLMs), pH 7.4, RLMs 0.10 mg/mL, read-out: T1/2 (hydrolytic half-life)
Protocol: (§2) The hydrolytic half-lives (t1/2) of AB23A in human plasma and different human tissue preparations were carried out according to the procedure of in vitro metabolic stability studies ([Ge et al., 2013]). The incubation mixture (1,000 μL) consisted of PBS (pH 7.4), enzyme sources (HLMs/HIMs/human plasma) and AB23A. 25% diluted human plasma was used, the protein concentrations of other tissue microsomes were 0.1 mg/mL. The 100 μL incubation mixture was moved to another containing ice-cold acetonitrile tube at different time points (0, 5, 15, 30, 45, 60, 90, 120 min). All samples were centrifuged for 30 min at 20,000 g 4°C and took the supernatants for LC-UV analysis.
(§3) The incubation conditions were as follows: the classic incubation system included 100 mM potassium phosphate buffer (PBS, pH 7.4), enzyme sources, and AB23A. In all incubations, PBS and enzyme sources were pre-incubation at 37 °C for 3 min and the reaction was started by adding AB23A (the organic solvent content at most 1%). After reacting 1 h, ice-cold acetonitrile was added to terminate the reaction and precipitate proteins. The samples were centrifuged for 30 min at 20000 × g, 4 °C, and the supernatants were taken for further LC-UV analysis.

[6] = AB23A hydrolysis in human kidney microsomes; type: in vitro ADME
Protocol: as §2, §3

For CC(=O)O[C@H](C[C@@H](C)C1=C2C[C@H](O)C3[C@@]4(C)CCC(=O)C(C)(C)C4CC[C@]3(C)[C@@]2(C)CC1)[C@H]1OC1(C)C (stereo partly drawn) [AB23A, Alisol B 23-acetate], the “Hydrolytic rate (formation of AB) in reaction phenotyping” value [1] is given as “also catalyzed this hydrolytic reaction”, the “Detection in mice plasma and liver” value [2] is given as “hardly detected” and the “Hydrolytic rate (formation of AB) in reaction phenotyping” value [3] is given as “also catalyzed this hydrolytic reaction”. The “Stability in PBS” value [4] was “very stable”, the half-life [5] was 55.63 ± 0.11 min and the “Formation of AB (hydrolytic metabolite) in HKMs” value [6] was “trace amount of AB”.
